Values quoted from earlier work, collected in patent publication US20100255088A1 (priority 2009, published 2010).
Where two headings read alike, the source gives them in different places.

Legend:
[1] = system: isolated pig retinal artery; conditions: through the NO system and prostacycline secretion
[2] = system: platelet aggregation; conditions: aspirin resistance group of patients
[3] = system: yeast and primitives animals; conditions: high resveratrol levels artificially maintained
[4] = biological target: H+/K+ ATPase (Homo sapiens, UniProt P20648); conditions: Life Sciences 66(8), 2000, 663-673
Chain of H+/K+ ATPase (P20648 whole entry): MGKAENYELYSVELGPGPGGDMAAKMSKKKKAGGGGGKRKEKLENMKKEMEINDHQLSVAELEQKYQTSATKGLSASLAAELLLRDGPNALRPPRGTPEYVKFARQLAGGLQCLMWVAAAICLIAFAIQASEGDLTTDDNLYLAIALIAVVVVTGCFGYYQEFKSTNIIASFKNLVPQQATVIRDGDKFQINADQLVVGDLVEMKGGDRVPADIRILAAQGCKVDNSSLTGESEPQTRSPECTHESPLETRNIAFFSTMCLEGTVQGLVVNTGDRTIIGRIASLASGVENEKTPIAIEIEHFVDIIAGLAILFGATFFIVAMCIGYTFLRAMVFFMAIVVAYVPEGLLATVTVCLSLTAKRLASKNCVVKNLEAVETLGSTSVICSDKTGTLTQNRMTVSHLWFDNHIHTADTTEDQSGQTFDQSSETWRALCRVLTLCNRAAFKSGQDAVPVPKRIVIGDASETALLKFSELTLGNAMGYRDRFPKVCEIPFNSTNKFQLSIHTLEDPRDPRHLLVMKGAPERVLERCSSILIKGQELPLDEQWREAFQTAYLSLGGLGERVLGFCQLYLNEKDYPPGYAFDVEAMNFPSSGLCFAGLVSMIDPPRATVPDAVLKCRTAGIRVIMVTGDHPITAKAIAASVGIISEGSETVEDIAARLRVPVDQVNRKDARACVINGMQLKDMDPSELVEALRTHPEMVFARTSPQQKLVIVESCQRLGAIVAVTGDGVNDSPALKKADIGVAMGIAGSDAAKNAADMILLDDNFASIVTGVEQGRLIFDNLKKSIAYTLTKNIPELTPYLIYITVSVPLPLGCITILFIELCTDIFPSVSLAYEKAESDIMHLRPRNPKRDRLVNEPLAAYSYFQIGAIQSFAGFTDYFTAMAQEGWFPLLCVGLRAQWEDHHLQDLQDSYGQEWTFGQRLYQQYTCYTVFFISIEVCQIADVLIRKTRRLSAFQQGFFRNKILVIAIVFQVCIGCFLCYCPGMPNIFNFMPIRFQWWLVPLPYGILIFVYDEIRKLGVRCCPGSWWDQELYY
Chain of H+/K+ ATPase (P51164 whole entry partner): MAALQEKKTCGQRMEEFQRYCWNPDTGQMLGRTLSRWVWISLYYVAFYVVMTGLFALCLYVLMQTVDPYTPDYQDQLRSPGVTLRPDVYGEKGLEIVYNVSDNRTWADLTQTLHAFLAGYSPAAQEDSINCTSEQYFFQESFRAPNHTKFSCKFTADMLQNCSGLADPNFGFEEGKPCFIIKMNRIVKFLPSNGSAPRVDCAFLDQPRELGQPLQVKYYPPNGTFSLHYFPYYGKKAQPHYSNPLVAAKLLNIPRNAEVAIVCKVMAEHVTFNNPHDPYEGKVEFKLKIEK

[5] = not given; remark: listed apart in the source

Row | SMILES | vasodilating effect [1] | platelet aggregation inhibition [2] | life span [3] | hydrochloric acid production [4] | patients with reduced mortality (at least 325 mg daily for ten years) | incidence of various human carcinomas (full dose aspirin for ten years and above) | patients with reduced mortality (higher doses for ten years) | water solubility [5]
1 | Oc1ccc(C=Cc2cc(O)cc(O)c2)cc1 [resveratrol] | strong vasodilating effect | optimal platelet aggregation inhibition | doubling the life span | reducing significantly the hydrochloric acid production | – | – | – | –
2 | CC(=O)Oc1ccccc1C(=O)O [aspirin, acetyl salicylic acid] | – | – | – | – | 50% | halved | 75% | not water-soluble
